Assay results from patent US20230088214A1, “GLYCOLATE OXIDASE INHIBITORS FOR THE TREATMENT OF DISEASE” (BIOMARIN PHARMACEUTICAL INC., priority 2019, published 2023).

target: T1, GO (Homo sapiens, UniProt Q9UJM8); test: GO Enzymatic Assay (Assay 1); assay type: biochemical; design: purchased Novus Biologicals NBP1-72412; details: Table 4; class symbols without asterisk, GO Enzymatic Assay (Assay 1); read-out: Range
T1 sequence (Q9UJM8 1-370): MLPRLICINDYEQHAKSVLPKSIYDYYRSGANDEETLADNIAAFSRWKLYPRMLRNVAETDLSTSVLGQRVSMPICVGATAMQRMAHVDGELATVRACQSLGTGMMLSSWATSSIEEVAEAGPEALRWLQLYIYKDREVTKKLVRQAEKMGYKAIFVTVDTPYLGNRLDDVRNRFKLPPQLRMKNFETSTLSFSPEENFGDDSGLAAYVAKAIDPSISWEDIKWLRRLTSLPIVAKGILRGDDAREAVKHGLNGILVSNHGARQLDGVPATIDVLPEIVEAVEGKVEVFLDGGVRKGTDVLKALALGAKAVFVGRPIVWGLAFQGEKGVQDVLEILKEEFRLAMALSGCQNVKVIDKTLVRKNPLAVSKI
Procedure: Assay 1: GO Enzymatic Assay
GO was incubated with its substrate, glycolate, in 50 mM potassium phosphate buffer, pH 7. […] The enzyme was optimized and the kinetics was determined.
Compound inhibition was determined by adding various concentrations of inhibitors in the GO enzyme assay. The IC50 value for each measured compound was generated from sigmoidal dose-response (variable slope) curves with GraphPad Prism software (GraphPad Software, Inc., San Diego, Calif.) using the percent inhibition of GO activity relative to DMSO control.

| IC50 [nM] | Structure (SMILES) |
| --- | --- |
| < 100 | O=C(O)c1[nH]nnc1Sc1ccc(-c2ccc(N3CCCCC3)c(Cl)c2)cc1 [Compound 376, 4-((3′-chloro-4′-(piperidin-1-yl)-[1,1′-biphenyl]-4-yl)thio)-1H-1,2,3-triazole-5-carboxylic acid 2,2,2-trifluoroacetate] |
| < 100 | O=C(O)c1[nH]nnc1CS[C@H]1CC[C@@H](c2cc(Cl)cc(Cl)c2)CC1 [Compound 377, 4-((((cis)-4-(3,5-dichlorophenyl)cyclohexyl)thio)methyl)-1H-1,2,3-triazole-5-carboxylic acid] |
| < 100 | O=C(O)c1[nH]nnc1O[C@H]1CC[C@@H](c2ccc(N3CCCCC3=O)cc2)CC1 [Compound 379, 4-(((cis)-4-(4-(2-oxopiperidin-1-yl)phenyl)cyclohexyl)oxy)-1H-1,2,3-triazole-5-carboxylic acid] |
| < 100 | O=C(O)c1[nH]nnc1Oc1cccc(OC2CCCCC2)c1 [Compound 380, 4-(3-(cyclohexyloxy)phenoxy)-1H-1,2,3-triazole-5-carboxylic acid 2,2,2-trifluoroacetate] |
| < 100 | O=C(O)c1[nH]nnc1Oc1ccc(Cl)c(OC2CCCC2)c1 [Compound 381, 4-(4-chloro-3-(cyclopentyloxy)phenoxy)-1H-1,2,3-triazole-5-carboxylic acid 2,2,2-trifluoroacetate] |
| 100 to 1000 | O=C(O)c1[nH]nnc1Sc1cccc(OC2CCCCC2)c1 [Compound 382, 4-((3-(cyclohexyloxy)phenyl)thio)-1H-1,2,3-triazole-5-carboxylic acid 2,2,2-trifluoroacetate] |
| < 100 | O=C(O)c1[nH]nnc1CSC1CCN(c2cc(Cl)ccc2Cl)CC1 [Compound 383, 4-(((1-(2,5-dichlorophenyl)piperidin-4-yl)thio)methyl)-1H-1,2,3-triazole-5-carboxylic acid 2,2,2-trifluoroacetate] |
| < 100 | O=C(O)c1[nH]nnc1CSC1CCN(c2ccc(Cl)c(Cl)c2)CC1 [Compound 384, 4-(((1-(3,4-dichlorophenyl)piperidin-4-yl)thio)methyl)-1H-1,2,3-triazole-5-carboxylic acid 2,2,2-trifluoroacetate] |
| < 100 | O=C(O)c1[nH]nnc1SC1CCN(c2cc(Cl)ccc2OC(F)(F)F)CC1 [Compound 386, 4-((1-(5-chloro-2-(trifluoromethoxy)phenyl)piperidin-4-yl)thio)-1H-1,2,3-triazole-5-carboxylic acid 2,2,2-trifluoroacetate] |
| < 100 | O=C(O)c1[nH]nnc1Oc1ccc(-c2ccc(Cl)cc2)c(OCC2CCCC2)c1 [Compound 387, 4-((4′-chloro-2-(cyclopentylmethoxy)-[1,1′-biphenyl]-4-yl)oxy)-1H-1,2,3-triazole-5-carboxylic acid 2,2,2-trifluoroacetate] |
| 1000 to 10000 | O=C(O)c1[nH]nnc1Oc1ccc(C2CCN(C3CCCCC3)CC2)cc1 [Compound 388, 4-(4-(1-cyclohexylpiperidin-4-yl)phenoxy)-1H-1,2,3-triazole-5-carboxylic acid 2,2,2-trifluoroacetate] |

same assay, conditions: human GO, glycolate substrate, pH 7, percent inhibition relative to DMSO control; read-out: Range of IC50 values calculated from the enzymatic assays (Assay 1)

| IC50 [nM] | Structure (SMILES) |
| --- | --- |
| 1000 to 10000 | C[N+](C)(C)CCOC(=O)c1[nH]nnc1Sc1ccc(-c2ccc(OC(F)(F)F)cc2)cc1 [Compound 38, N,N,N-trimethyl-2-((4-((4′-(trifluoromethoxy)-[1,1′-biphenyl]-4-yl)thio)-1H-1,2,3-triazole-5-carbonyl)oxy)ethan-1-aminium iodide] |
| < 100 | O=C(O)c1[nH]nnc1O[C@H]1CC[C@H](c2ccc(OC(F)(F)F)cc2)CC1 [Compound 272-1, 4-(((trans)-4-(4-(trifluoromethoxy)phenyl)cyclohexyl)oxy)-1H-1,2,3-triazole-5-carboxylic acid] |
| < 100 | O=C(O)c1[nH]nnc1O[C@H]1CC[C@@H](c2ccc(OC(F)(F)F)cc2)CC1 [Compound 272-2, 4-(((cis)-4-(4-(trifluoromethoxy)phenyl)cyclohexyl)oxy)-1H-1,2,3-triazole-5-carboxylic acid] |
